{
  "source": "patent US20220401385A1",
  "about": "“Combination Therapy Based on PD-1 Signaling Inhibitors” (Kyoto University, priority 2019, published 2022)",
  "key": {"MethA or CT26 cells": {"system": "MethA or CT26 cells", "assay": "MethA or CT26 tumor model", "format": "in vivo, BALB/c mice", "settings": "BALB/c mouse, MethA (SPD 1 mg/kg) or CT26 (SPD 4 mg/kg), with PD-L1 antibody 2 mg/kg", "protocol": "(§1) FIG. 2-2 a-b) MethA or CT26 cells were intradermally inoculated into BALB/c mice. Ten days after inoculation, PD-L1 antibody (2 mg/kg), PD-L1 antibody+SPD (1 mg/kg for Meth A, 4 mg/kg for CT26) or SPD alone was administered. c) LLC cells were intradermally inoculated into C57BL/6 mice. Ten days after inoculation, mice were treated in the same manner as described in a-b) above. SPD was administered at 4 mg/kg. d) MC38 cells were inoculated into C57BL/6 Rag2^−/− mice. Ten days after inoculation, mice were treated in the same manner as described in a-b) above. SPD was administered at 5 mg/kg. Tumor growth curve and survival curve are shown."}, "LLC cells": {"system": "LLC cells", "assay": "LLC tumor model", "format": "in vivo, C57BL/6 mice", "settings": "SPD 4 mg/kg + PD-L1 antibody", "protocol": "as §1"}, "CD44 low CD8+ T cells": {"system": "CD44 low CD8+ T cells", "assay": "Cell proliferation by 3H uptake in vitro, CD44 low cells", "format": "cell-based, mice", "settings": "SPD 0.2 μM, 24 hours", "protocol": "FIG. 4 CD8^+ T cells were isolated from the spleen of mice without tumor inoculation, and further isolated into CD44^+ (CD44 high) and CD44^− (CD44 low) cell populations. a) CD44 low cells were simulated with CD3/CD28 antibody beads and SPD (0.2 μM). After 30 minutes, 1 hour, 2 hours and 72 hours, OCR was measured with a Seahorse analyzer. b) At the same time, total ATP production and glycolytic pathway-derived or mitochondrial activity-derived ATP production were calculated at 30-minute, 1-hour and 2-hour. c) CD44 low cells (2×10^5 cells) were stimulated with CD3/CD28 antibody beads and SPD (0.2 μM). After 24 hours, cell proliferation was examined by means of 3H uptake. d) Spare respiratory capacity (SRC) was calculated from the OCR measurement after 72 hours in a), and results with and without SPD were compared. e) CD44 low cells were stimulated with CD3/CD28 antibody beads and SPD (0.2 μM). After 24 hours, frequencies between apoptotic and viable cells were calculated by PI and Annexin staining. f-j) CD44 high cells were analyzed under the same conditions and by the same methods as described in a-e) above. As regards statistical analysis, t-test was used for comparison of two groups, and ANOVA was used for comparison of three or more groups. * p<0.05, ** p<0.01, *** p<0.001, **** p<0.0001."}, "CD44 high CD8+ T cells": {"system": "CD44 high CD8+ T cells", "assay": "Mitochondria-related proteomics in vitro, CD44 high cells", "format": "cell-based, mice", "settings": "late phase, 44 hours after SPD stimulation", "protocol": "FIG. 6 CD8^+ T cells were isolated from the spleen of mice without tumor inoculation, and further isolated into CD44^+ (CD44 high) and CD44^− (CD44 low) cell populations. CD44 low cells and CD44 high cells were simulated with CD3/CD28 antibody beads and SPD (0.2 μM). After 1 hour and 44 hours, cells were collected and proteomics analyses regarding mitochondria-related proteins were conducted. A heat map showing the categories of respective signaling pathways, associated protein names and comparison of their expression levels is given.\nT cells were prepared by two methods. For in vivo analysis, 13 days after tumor inoculation and 3 days after the start of therapy, draining lymph nodes from 5 mice were pooled, followed by isolation of CD8^+ T cells. From the isolated CD8^+ T cells, three samples each consisting of 1×10^6 cells were prepared and used for analysis. For in vitro experiments, 2×10^5 CD8^+ T cells stimulated with 0.2 μM spermidine for 1 hour were used. For mass spectrometry analysis, a Tandem Mass Tag (TMT) system or a Data Independent Acquisition (DIA) system was used. In the analysis of in vivo CD8^+ T cells (FIG. 3), those proteins which increased by 1.5-fold or more or decreased by 0.6-fold or less were extracted."}, "MC38 cells": {"system": "MC38 cells", "assay": "MC38 therapy model in aged mice, tumor growth and survival", "format": "in vivo", "settings": "56-week old mice; combination PD-L1 antibody (2 mg/kg) + SPD (2 mg/kg)", "protocol": "FIG. 7 MC38 cells (5×10^5) were intradermally inoculated into 56-week old mice, which were treated along with the treatment schedule described in FIG. 1. PD-L1 antibody (2 mg/kg) and SPD (2 mg/kg) were used. a) Tumor growth curve and survival curve are shown. b) The frequency of CD8^+ T cells among lymphocytes infiltrating into tumor (in CD45^+ gate) and the absolute number of CD8^+ T cells per mg tumor 13 days after tumor inoculation are shown. c) CD8^+ T cells were isolated from spleen cells on the same schedule as b) and cultured for 20 hours under the stimulation with CD3/CD28. Cell proliferation was examined by means of ^3H uptake. d) CD8^+ T cells were isolated from draining lymph nodes on the same schedule as b) and glycolytic pathway-derived or mitochondrial metabolism-derived ATP production was calculated by Seahorse. e) Spare respiratory capacity (SRC) was also calculated in the experiment (d).\nMC38 cells (5×10^5) were intradermally injected on the right flank. […] Tumors were measured on every alternate day, and tumor volumes were calculated using the formula for typical ellipsoid, π×(length×breadth×height/6).\nIt is known from mouse model experiments that the effect of PD-1 inhibitory antibody therapy decreases in aged mice due to their decreased immunity. […] Spare respiratory capacity (SRC) was also calculated. […]"}},
  "data": [
    {"smiles": "NCCCCNCCCN", "note": "[SPD, spermidine]", "values": [
      {"measurement": "effect of SPD for enhancing the antitumor immunity of PD-1 inhibition", "setting": "MethA or CT26 cells", "result": "confirmed"},
      {"measurement": "antitumor effect of PD-1 inhibitory antibody with SPD", "setting": "LLC cells", "result": "exhibit the antitumor effect"},
      {"measurement": "cell proliferation", "setting": "CD44 low CD8+ T cells", "result": "increased"},
      {"measurement": "expression levels of mitochondrial proteins and proteins of mitochondria-related metabolism", "setting": "CD44 high CD8+ T cells", "result": "high"},
      {"measurement": "tumor shrinking effect", "setting": "MC38 cells", "result": "enhanced tumor shrinking effect"}
    ]}
  ]
}
